Experimental data published in patent US20250090699A1, “FAP TARGETING CYCLIC PEPTIDES AND CONJUGATES THEREOF” (Novartis AG, priority 2023, published 2025).
Starred links: 1 amine or outer side, 2 acyl side, 3 side chain; linkers in the order of their positions; H or OH if unused. Non-standard residues stand in square brackets, D forms with d. Residues, ends and D or L forms follow the SMILES beside them. Groups on a side chain read outwards from the residue. *: point of attachment. F(4amPEG2NHDOTA-Ga) = gallium complex of (S)-2,2',2''-(10-(1-(4-(2-amino-2-carboxyethyl)phenyl)-3,12-dioxo-5,8-dioxa-2,11-diazatridecan-13-yl)-1,4,7,10-tetraazacyclododecane-1,4,7-triyl)triacetic acid (Phe with 4-aminomethyl-PEG2-DOTA-Ga), O=C([O-])CN1CCN(CC(=O)[O-])CCN(CC(=O)NCCOCCOCC(=O)NCc2ccc(C[C@H](N[*:1])C(=O)[*:2])cc2)CCN(CC(=O)[O-])CC1.[Ga+3]; K(COpipzaa) = N6-(4-(carboxymethyl)piperazine-1-carbonyl)-L-lysine, O=C(NCCCC[C@H](N[*:1])C(=O)[*:2])N1CCN(CC(=O)[*:3])CC1; X8 = O=C(O)CN1CCN(CC(=O)O)CCN(CC(=O)O)C(Cc2ccc(NC(=S)*)cc2)CN(CC(=O)O)CC1; hS(Pr) = O-propyl-L-homoserine, CCCOCC[C@H](N[*:1])C(=O)[*:2]; NOTA = O=C(O)CN1CCN(CC(=O)O)CCN(CC(=O)*)CC1; Phe(4-CH2NH2) = NCc1ccc(C[C@H](N)C(=O)O)cc1; Piperazinyl(4-CH2COOH) = O=C(O)CN1CCN(*)CC1; Nicotinoyl(6-F) = O=C(c1ccc(F)nc1)*; NMeF = CN[C@@H](Cc1ccccc1)C(=O)O; Aoc(2) = CCCCCC[C@H](N)C(=O)O; hSer = N[C@@H](CCO)C(=O)O; AEEA = NCCOCCOCC(=O)O; CO = O=C([*:1])[*:2]; Propyl = CCC*

Tests used:
mouse FAP [1] = target: T1, mouse FAP (Mus musculus, UniProt P97321); assay: Surface plasmon resonance (SPR) for peptide affinity, mouse FAP; assay type: binding
T1 construct: biotinylated His, Avi tag, mouse FAP (26-761, FAP-M82Q5); His; Avi tag (biotinylated); purchased AcroBiosystems FAP-M82Q5
T1 sequence (P97321 26-761): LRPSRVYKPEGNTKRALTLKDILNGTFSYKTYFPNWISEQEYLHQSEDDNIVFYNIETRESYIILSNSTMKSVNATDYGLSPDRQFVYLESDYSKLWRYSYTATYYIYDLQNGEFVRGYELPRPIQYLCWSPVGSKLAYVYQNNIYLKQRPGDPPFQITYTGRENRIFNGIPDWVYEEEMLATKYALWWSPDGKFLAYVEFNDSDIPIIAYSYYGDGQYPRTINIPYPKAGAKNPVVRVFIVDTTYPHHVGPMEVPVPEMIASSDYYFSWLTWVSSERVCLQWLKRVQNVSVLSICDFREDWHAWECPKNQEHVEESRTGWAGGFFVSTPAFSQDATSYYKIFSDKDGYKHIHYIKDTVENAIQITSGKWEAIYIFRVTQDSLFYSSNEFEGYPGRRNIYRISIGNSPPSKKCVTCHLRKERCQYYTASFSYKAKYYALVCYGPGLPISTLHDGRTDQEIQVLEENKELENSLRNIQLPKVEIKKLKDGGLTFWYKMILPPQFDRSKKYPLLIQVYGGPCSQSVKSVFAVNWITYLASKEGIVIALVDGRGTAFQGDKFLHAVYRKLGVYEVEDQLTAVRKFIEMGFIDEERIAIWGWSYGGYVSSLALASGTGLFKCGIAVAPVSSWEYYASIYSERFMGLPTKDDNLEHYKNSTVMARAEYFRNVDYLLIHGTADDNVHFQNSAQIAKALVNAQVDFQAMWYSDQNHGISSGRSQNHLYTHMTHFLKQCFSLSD
Method in brief: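 Biotinylated His/Avi-tagged FAP ectodomains (human 26-760, mouse 26-761) captured or immobilized on Biacore sensor chips; peptides run at 25 °C in HBS-EP+ pH 7.6 with 2% DMSO, single-cycle kinetics, 8 concentrations. KD from 1:1 binding-model fit of sensorgrams.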

human FAP = target: T2, human FAP (Homo sapiens, UniProt Q12884); assay: Enzymatic FAP competition assay (Z-Gly-Pro-AMC fluorescence), human FAP; assay type: biochemical; conditions: read-out: h. FAP, Enz., IC50
T2 construct: the biotinylated His, Avi tag, human FAP (26-760, FAP-H82Q6); His; Avi tag (biotinylated); purchased AcroBiosystems FAP-H82Q6
T2 sequence (Q12884 26-760): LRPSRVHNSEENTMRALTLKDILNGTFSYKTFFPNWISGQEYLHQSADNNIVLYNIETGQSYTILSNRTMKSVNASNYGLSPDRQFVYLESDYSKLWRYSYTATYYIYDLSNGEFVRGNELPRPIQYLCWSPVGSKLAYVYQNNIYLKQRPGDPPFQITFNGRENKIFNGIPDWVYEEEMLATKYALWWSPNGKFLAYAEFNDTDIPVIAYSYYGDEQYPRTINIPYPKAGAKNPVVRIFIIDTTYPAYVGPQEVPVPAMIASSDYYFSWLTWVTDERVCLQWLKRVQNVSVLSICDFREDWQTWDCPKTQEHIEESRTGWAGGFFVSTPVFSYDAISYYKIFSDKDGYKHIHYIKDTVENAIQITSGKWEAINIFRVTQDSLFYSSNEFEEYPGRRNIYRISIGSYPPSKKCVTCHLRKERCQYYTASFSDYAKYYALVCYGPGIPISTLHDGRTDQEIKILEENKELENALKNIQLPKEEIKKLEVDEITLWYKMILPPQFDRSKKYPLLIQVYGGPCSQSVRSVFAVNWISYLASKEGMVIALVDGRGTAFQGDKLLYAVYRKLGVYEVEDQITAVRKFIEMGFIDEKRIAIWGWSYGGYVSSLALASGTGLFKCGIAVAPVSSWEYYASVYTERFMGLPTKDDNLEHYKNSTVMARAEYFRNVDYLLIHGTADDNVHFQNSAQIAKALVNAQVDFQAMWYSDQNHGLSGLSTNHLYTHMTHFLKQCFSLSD
Method in brief: (§1)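 Biotinylated His/Avi-tagged FAP ectodomain (human 26-760, mouse 26-761) at 0.01 nM, preincubated 24 h with peptides (14 concentrations, up to 1 μM) in pH 7.5 phosphate, 150 mM NaCl, 0.05% Tween20, 1% DMSO. Then 50 μM Z-Gly-Pro-AMC, 4 h at 22-24° C; AMC fluorescence (380/460 nm) gave IC50 from duplicate points.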

mouse FAP [2] = target: T1, mouse FAP; assay: Enzymatic FAP competition assay (Z-Gly-Pro-AMC fluorescence), mouse FAP; assay type: biochemical; conditions: read-out: m. FAP, Enz., IC50
Method in brief: as §1

Compound	Kd (mouse FAP [1])	IC50 (human FAP)	IC50 (mouse FAP [2])
CCCOCC[C@@H]1NC(=O)[C@H](Cc2ccc(CNC(=O)COCCOCCNC(=S)Nc3ccc(CC4CN(CC(=O)O)CCN(CC(=O)O)CCN(CC(=O)O)CCN4CC(=O)O)cc3)cc2)NC(=O)[C@H](Cc2ccccc2)N(C)C(=O)CNC(=O)CNC(=O)[C@H]2CCCN2C(=O)[C@H](CC(=O)O)NC(=O)[C@H](CCCCNC(=O)N2CCN(CC(=O)O)CC2)NC(=O)CNC(=O)[C@H](Cc2c[nH]c3ccccc23)NC1=O (stereo partly drawn) [Example B35, Gly-Gly-NMePhe-F(4amPEG2NH-p-SCN-DOTA-hS(Pr)-Trp-Gly-K(COpipzaa)-Asp-D-Pro] (cyclo(D[dP]GG[NMeF][Phe(4-CH2NH2)]([AEEA-X8])[hSer](Propyl)WGK([CO-Piperazinyl(4-CH2COOH)])))	59 pM	21 pM	55 pM
CCCCCC[C@@H]1NC(=O)[C@H](Cc2ccc(CNC(=O)COCCOCCNC(=S)Nc3ccc(CC4CN(CC(=O)O)CCN(CC(=O)O)CCN(CC(=O)O)CCN4CC(=O)O)cc3)cc2)NC(=O)[C@H](Cc2ccccc2)N(C)C(=O)CNC(=O)CNC(=O)[C@H]2CCCN2C(=O)[C@H](CC(=O)O)NC(=O)[C@H](CCCCNC(=O)N2CCN(CC(=O)O)CC2)NC(=O)CNC(=O)[C@H](Cc2c[nH]c3ccccc23)NC1=O (stereo partly drawn) [Example B37, Gly-Gly-NMePhe-F(4amPEG2NH-p-SCN-DOTA-Aoc-Trp-Gly-K(COpipzaa)-Asp-D-Pro]	< 22 pM	17 pM	42 pM
CCCCCC[C@@H]1NC(=O)[C@H](Cc2ccc(CNC(=O)COCCOCCNC(=O)CCC(C(=O)O)N3CCN(CC(=O)O)CCN(CC(=O)O)CC3)cc2)NC(=O)[C@H](Cc2ccccc2)N(C)C(=O)CNC(=O)CNC(=O)[C@H]2CCCN2C(=O)[C@H](CC(=O)O)NC(=O)[C@H](CCCCNC(=O)N2CCN(CC(=O)O)CC2)NC(=O)CNC(=O)[C@H](Cc2c[nH]c3ccccc23)NC1=O (stereo partly drawn) [Example B38, Gly-Gly-NMePhe-F(4amPEG2NHNODAGA)-Aoc-Trp-Gly-K(COpipzaa)-Asp-D-Pro]	< 76 pM	31 pM	73 pM
CCCCCC[C@@H]1NC(=O)[C@H](Cc2ccc(CNC(=O)COCCOCCNC(=O)CN3CCN(CC(=O)O)CCN(CC(=O)O)CC3)cc2)NC(=O)[C@H](Cc2ccccc2)N(C)C(=O)CNC(=O)CNC(=O)[C@H]2CCCN2C(=O)[C@H](CC(=O)O)NC(=O)[C@H](CCCCNC(=O)N2CCN(CC(=O)O)CC2)NC(=O)CNC(=O)[C@H](Cc2c[nH]c3ccccc23)NC1=O [Example B40, Gly-Gly-NMePhe-F(4amPEG2NHNOTA)-Aoc-Trp-Gly-K(COpipzaa)-Asp-D-Pro] (cyclo(GG[NMeF][Phe(4-CH2NH2)]([AEEA-NOTA])[Aoc(2)]WGK([CO-Piperazinyl(4-CH2COOH)])D[dP]))	< 24 pM	6 pM	12 pM
CCCCCC[C@@H]1NC(=O)[C@H](Cc2ccc(CNC(=O)COCCOCCNC(=O)c3ccc(F)nc3)cc2)NC(=O)[C@H](Cc2ccccc2)N(C)C(=O)CNC(=O)CNC(=O)[C@H]2CCCN2C(=O)[C@H](CC(=O)O)NC(=O)[C@H](CCCCNC(=O)N2CCN(CC(=O)O)CC2)NC(=O)CNC(=O)[C@H](Cc2c[nH]c3ccccc23)NC1=O [Example C55, Gly-Gly-NMePhe-F(4amPEG2NHCOPy3(4F))-Aoc-Trp-Gly-K(COpipzaa)-Asp-D-Pro] (cyclo([Aoc(2)]WGK([CO-Piperazinyl(4-CH2COOH)])D[dP]GG[NMeF][Phe(4-CH2NH2)]([AEEA-Nicotinoyl(6-F)])))	< 14 pM	6 pM	22 pM
Glu-Gly-NMe3PyA-F(4amPEG2NHDOTA-Lu)-hS(Pr)-W7N-Gly-K(COpipzaa)-Asp-D-Pro [Example C7]	< 68 pM	14 pM	34 pM
Glu-Gly-NMePhe-F(4amPEG2NHDOTA-Ga)-hS(Pr)-Trp-Gly-K(COpipzaa)-Asp-D-Pro (cyclo(EG[NMeF][F(4amPEG2NHDOTA-Ga)][hS(Pr)]WG[K(COpipzaa)]D[dP]); also: Ga complex of DOTA) [Example C45]	< 23 pM	19 pM	60 pM
